Test results: patent publication US9505728B2, “Triazolone compounds and uses thereof” (INCEPTION 2, INC., priority 2012, dated 2016)

Target: T1, Human PPARα (Homo sapiens, UniProt Q07869)
T1 construct: host or cells: proprietary non-human mammalian cells
T1 sequence (Q07869 1-468): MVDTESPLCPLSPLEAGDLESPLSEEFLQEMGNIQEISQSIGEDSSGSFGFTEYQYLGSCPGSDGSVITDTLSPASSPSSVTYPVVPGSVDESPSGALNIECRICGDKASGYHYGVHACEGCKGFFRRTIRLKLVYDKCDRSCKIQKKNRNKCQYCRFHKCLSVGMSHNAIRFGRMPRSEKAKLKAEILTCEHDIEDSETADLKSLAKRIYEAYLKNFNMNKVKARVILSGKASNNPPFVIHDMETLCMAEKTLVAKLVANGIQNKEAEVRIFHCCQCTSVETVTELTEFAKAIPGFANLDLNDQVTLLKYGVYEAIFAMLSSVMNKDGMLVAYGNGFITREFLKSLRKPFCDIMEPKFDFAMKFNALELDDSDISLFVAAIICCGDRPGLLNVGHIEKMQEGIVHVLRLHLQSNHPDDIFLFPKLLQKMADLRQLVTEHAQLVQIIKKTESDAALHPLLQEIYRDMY
Assay: Human PPARα Reporter Assay (luciferase)
Assay type: cell-based
Conditions: human PPARα reporter cells, overnight incubation, antagonism; read-out: Luciferase IC50
Procedure, shortened: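 Non-human mammalian cells constitutively expressing human PPARα with a PPARα-responsive luciferase reporter were dosed with compounds right after plating. After overnight incubation, media removed and detection reagent added; luminescence taken as proportional to PPARα activation, agonist or antagonist mode.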

**Q.** Which IC50 does the source give for `CCn1c(CCCc2ccc(-c3ccc(OC)c(CCNS(C)(=O)=O)c3)cc2)nn(Cc2ccc(C(C)(C)C)cc2)c1=O` [Example 183, 1-{[4-(tert-Butyl)phenyl]methyl}-4-ethyl-3-{3-[4-(4-methoxy-3-{2-[(methylsulfonyl)amino]ethyl}phenyl)phenyl]propyl}-1,2,4-triazolin-5-one] here?
**A.** Its IC50 is 440 nM.

**Q.** `CCn1c(CCCc2ccc(-c3ccc(C4(O)CCOCC4)cc3)cc2)nn(Cc2ccc(C(C)(C)C)cc2)c1=O` [Example 187, 1-(4-(tert-Butyl)benzyl)-4-ethyl-3-(3-(4′-(4-hydroxytetrahydro-2H-pyran-4-yl)-[1,1′-biphenyl]-4-yl)propyl)-1H-1,2,4-triazol-5(4H)-one] was tested. Which IC50 did it give?
**A.** Its IC50 is 607 nM.

**Q.** With `CCn1c(CCCc2ccc(-c3ccc(OC)c(CNS(C)(=O)=O)c3)cc2)nn(Cc2ccc(C(C)(C)C)cc2)c1=O` [Example 186, 1-{[4-(tert-Butyl)phenyl]methyl}-4-ethyl-3-{3-[4-(4-methoxy-3-{[(methylsulfonyl)amino]methyl}phenyl)phenyl]propyl}-1,2,4-triazolin-5-one] as the compound, how does the IC50 read?
**A.** Its IC50 is 587 nM.

**Q.** With `CCn1c(CCCc2ccc(-c3ccc(OC)c(N)n3)cc2)nn(Cc2ccc(C(C)(C)C)cc2)c1=O` [Example 58, 3-{3-[4-(6-Amino-5-methoxy(2-pyridyl))phenyl]propyl}-1-{[4-(tert-butyl)phenyl]methyl}-4-ethyl-1,2,4-triazolin-5-one] as the compound, how does the IC50 read?
**A.** The IC50 was 71 nM.

**Q.** With `CCn1c(CCCc2ccc(-c3ccc(OC)c(CCC(=O)O)c3)cc2)nn(Cc2ccc(C(C)(C)C)cc2)c1=O` [Example 179, 3-(5-{4-[3-(1-{[4-(tert-Butyl)phenyl]methyl}-4-ethyl-5-oxo(1,2,4-triazolin-3-yl))propyl]phenyl}-2-methoxyphenyl)propanoic acid] as the compound, how does the IC50 read?
**A.** The IC50 was 121 nM.

**Q.** For `CCn1c(CCCc2ccc(-c3ccc(OC)c(CC(=O)NS(=O)(=O)c4ccccc4)c3)cc2)nn(Cc2ccc(C(C)(C)C)cc2)c1=O` [Example 136, 2-(4′-(3-(1-(4-(tert-Butyl)benzyl)-4-ethyl-5-oxo-4,5-dihydro-1H-1,2,4-triazol-3-yl)propyl)-4-methoxy-[1,1′-biphenyl]-3-yl)-N-(phenylsulfonyl)acetamide], which IC50 is on record?
**A.** Its IC50 is 41 nM.

**Q.** How did the IC50 turn out when `CCn1c(CCCc2ccc(-c3cccc(C(=O)C(=O)NC4CC4)c3)cc2)nn(Cc2ccc(C(C)(C)C)cc2)c1=O` [Example 57, 2-(4′-(3-(1-(4-(tert-Butyl)benzyl)-4-ethyl-5-oxo-4,5-dihydro-1H-1,2,4-triazol-3-yl)propyl)-[1,1′-biphenyl]-3-yl)-N-cyclopropyl-2-oxoacetamide] was run?
**A.** Its IC50 is 175 nM.

**Q.** For `CCn1c(CCCc2ccc(-c3cccc(NS(=O)(=O)C4CC4)n3)cc2)nn(Cc2ccc(C(C)(C)C)cc2)c1=O` [Example 42, 1-{[4-(tert-Butyl)phenyl]methyl}-3-[3-(4-{6-[(cyclopropylsulfonyl)amino](2-pyridyl)}phenyl)propyl]-4-ethyl-1,2,4-triazolin-5-one], which IC50 is on record?
**A.** The IC50 was 488 nM.

**Q.** With `CCn1c(CCCc2ccc(-c3cc(C(=O)O)c(OC)cn3)cc2)nn(Cc2ccc(C(C)(C)C)cc2)c1=O` [Example 140, 2-(4-(3-(1-(4-(tert-Butyl)benzyl)-4-ethyl-5-oxo-4,5-dihydro-1H-1,2,4-triazol-3-yl)propyl)phenyl)-5-methoxyisonicotinic acid] as the compound, how does the IC50 read?
**A.** The IC50 was 396 nM.

**Q.** Which IC50 does the source give for `CCn1c(CCCc2ccc(-c3ccc(OC)c(CC(=O)O)c3)c(C)c2)nn(Cc2ccc(C(C)(C)C)cc2)c1=O` [Example 157, 2-(4′-(3-(1-(4-(tert-Butyl)benzyl)-4-ethyl-5-oxo-4,5-dihydro-1H-1,2,4-triazol-3-yl)propyl)-4-methoxy-2′-methyl-[1,1′-biphenyl]-3-yl)acetic acid] here?
**A.** The IC50 was 94 nM.

**Q.** With `CCn1c(CCCc2ccc(-c3cccc(CC(=O)O)c3)cc2)nn(Cc2ccc(C(C)(C)C)c(C)c2)c1=O` [Example 115, 2-(4′-(3-(1-(3-Methyl-4-(tert-butyl)benzyl)-4-ethyl-5-oxo-4,5-dihydro-1H-1,2,4-triazol-3-yl)propyl)-[1,1′-biphenyl]-3-yl) acetic acid] as the compound, how does the IC50 read?
**A.** The IC50 was 116 nM.

**Q.** `CCn1c(CCCc2ccc(-c3ccc(OC)c([C@H](C)C(=O)O)c3)cc2)nn(Cc2ccc(C(C)(C)C)cc2)c1=O` [Example 142, (S)-2-(4′-(3-(1-(4-(tert-Butyl)benzyl)-4-ethyl-5-oxo-4,5-dihydro-1H-1,2,4-triazol-3-yl)propyl)-4-methoxy-[1,1′-biphenyl]-3-yl)propanoic acid] was tested. Which IC50 did it give?
**A.** The IC50 was 272 nM.

**Q.** For `CCn1c(CCCc2ccc(-c3ccc(OC)c(NS(=O)(=O)Cc4ccccc4)n3)cc2)nn(Cc2ccc(C(C)(C)C)cc2)c1=O` [Example 87, 1-{[4-(tert-Butyl)phenyl]methyl}-4-ethyl-3-{3-[4-(5-methoxy-6-{[benzylsulfonyl]amino}(2-pyridyl))phenyl]propyl}-1,2,4-triazolin-5-one], which IC50 is on record?
**A.** Its IC50 is 10 nM.

**Q.** Which IC50 does the source give for `CCn1c(CCCc2ccc(-c3ccc(C)c(N)c3)cc2)nn(Cc2ccc(C(C)(C)C)cc2)c1=O` [Example 149, 3-(3-(3′-Amino-4′-methyl-[1,1′-biphenyl]-4-yl)propyl)-1-(4-(tert-butyl)benzyl)-4-ethyl-1H-1,2,4-triazol-5(4H)-one] here?
**A.** The IC50 was 161 nM.

**Q.** `CCn1c(CCC(F)(F)c2ccc(-c3ccc(C4(F)COC4)cn3)cc2)nn(Cc2ccc(C(C)(C)C)cc2)c1=O` [Example 195, 1-(4-(tert-Butyl)benzyl)-3-(3,3-difluoro-3-(4-(5-(3-fluorooxetan-3-yl)pyridine-2-yl)phenyl)propyl)-4-ethyl-1H-1,2,4-triazol-5(4H)-one] was tested. Which IC50 did it give?
**A.** The IC50 was 49 nM.

**Q.** With `COc1ccc(-c2ccc(CCCc3nn(Cc4ccc(C(C)(C)C)cc4)c(=O)n3C)cc2)cc1CC(=O)O` [Example 106, 2-(4′-(3-(1-(4-(tert-Butyl)benzyl)-4-methyl-5-oxo-4,5-dihydro-1H-1,2,4-triazol-3-yl)propyl)-4-methoxy-[1,1′-biphenyl]-3-yl)acetic acid] as the compound, how does the IC50 read?
**A.** Its IC50 is 26 nM.

**Q.** How did the IC50 turn out when `CCn1c(CCCc2ccc(-c3ccc(OC)c(C4(C(=O)O)CC4)c3)cc2)nn(Cc2ccc(C(C)(C)C)cc2)c1=O` [Example 128, 1-(4′-(3-(1-(4-(tert-Butyl)benzyl)-4-ethyl-5-oxo-4,5-dihydro-1H-1,2,4-triazol-3-yl)propyl)-4-methoxy-[1,1′-biphenyl]-3-yl)cyclopropanecarboxylic acid] was run?
**A.** The IC50 was 281 nM.

**Q.** How did the IC50 turn out when `CCn1c(CCCc2ccc(-c3cccc(NS(=O)(=O)Cc4ccccc4)n3)cc2)nn(Cc2ccc(C(C)(C)C)cc2)c1=O` [Example 78, 1-{[4-(tert-Butyl)phenyl]methyl}-4-ethyl-3-{3-[4-(6-{[benzylsulfonyl]amino}(2-pyridyl))phenyl]propyl}-1,2,4-triazolin-5-one] was run?
**A.** Its IC50 is 37 nM.

**Q.** Which IC50 does the source give for `CCCc1ccc(S(=O)(=O)Nc2cccc(-c3ccc(CCCc4nn(Cc5ccc(C(C)(C)C)cc5)c(=O)n4CC)cc3)n2)cc1` [Example 72, 1-{[4-(tert-Butyl)phenyl]methyl}-4-ethyl-3-{3-[4-(6-{[(4-propylphenyl)sulfonyl]amino}(2-pyridyl))phenyl]propyl}-1,2,4-triazolin-5-one] here?
**A.** Its IC50 is 208 nM.

**Q.** Which IC50 does the source give for `CCn1c(CCCc2ccc(-c3ccc(C)c(C(=O)O)c3)cc2)nn(Cc2ccc(C(C)(C)C)cc2)c1=O` [Example 132, 4′-(3-(1-(4-(tert-Butyl)benzyl)-4-ethyl-5-oxo-4,5-dihydro-1H-1,2,4-triazol-3-yl)propyl)-4-methyl-[1,1′-biphenyl]-3-carboxylic acid] here?
**A.** Its IC50 is 12 nM.

**Q.** `CCn1c(CCCc2ccc(-c3cc(N)ccn3)cc2)nn(Cc2ccc(C(C)(C)C)cc2)c1=O` [Example 11, 3-(3-(4-(4-Aminopyridin-2-yl)phenyl)propyl)-1-(4-(tert-butyl)benzyl)-4-ethyl-1H-1,2,4-triazol-5(4H)-one] was tested. Which IC50 did it give?
**A.** The IC50 was 157 nM.

**Q.** For `CCn1c(CCCc2ccc(-c3cccc(CC(=O)O)n3)cc2)nn(Cc2ccc(C(C)(C)C)cc2)c1=O` [Example 50, 2-(6-{4-[3-(1-{[4-(tert-Butyl)phenyl]methyl}-4-ethyl-5-oxo-1,2,4-triazolin-3-yl)propyl]phenyl}-2-pyridyl) acetic acid], which IC50 is on record?
**A.** The IC50 was 568 nM.

**Q.** `CCn1c(CCCc2ccc(-c3ccc(OC)c(NS(=O)(=O)c4ccc(C(F)(F)F)cc4)n3)cc2)nn(Cc2ccc(C(C)(C)C)cc2)c1=O` [Example 88, 1-{[4-(tert-Butyl)phenyl]methyl}-4-ethyl-3-(3-{4-[5-methoxy-6-({[4-(trifluoromethyl)phenyl]sulfonyl}amino)(2-pyridyl)]phenyl}propyl)-1,2,4-triazolin-5-one] was tested. Which IC50 did it give?
**A.** The IC50 was 24 nM.

**Q.** `CCn1c(CCCc2ccc(-c3ccc(C(F)(F)F)c(N)c3)cc2)nn(Cc2ccc(C(C)(C)C)cc2)c1=O` [Example 148, 3-(3-(3′-Amino-4′-(trifluoromethyl)-[1,1′-biphenyl]-4-yl)propyl)-1-(4-(tert-butyl)benzyl)-4-ethyl-1H-1,2,4-triazol-5(4H)-one] was tested. Which IC50 did it give?
**A.** The IC50 was 241 nM.

**Q.** Which IC50 does the source give for `CCCCn1c(CCCc2ccc(-c3ccc(OCC)c(CC(=O)O)c3)cc2)nn(Cc2ccc(C(C)(C)C)cc2)c1=O` [Example 69, 2-(4′-(3-(4-Butyl-1-(4-(tert-butyl)benzyl)-5-oxo-4,5-dihydro-1H-1,2,4-triazol-3-yl)propyl)-4-ethoxy-[1,1′-biphenyl]-3-yl)acetic acid] here?
**A.** Its IC50 is 24 nM.

**Q.** For `CCn1c(CCCc2ccc(-c3ccc(C4(F)COC4)cn3)cc2)nn(Cc2ccc(C(C)(C)C)cc2)c1=O` [Example 191, 1-(4-(tert-Butyl)benzyl)-4-ethyl-3-(3-(4-(5-(3-fluorooxetan-3-yl)pyridine-2-yl)phenyl)propyl)-1H-1,2,4-triazol-5(4H)-one], which IC50 is on record?
**A.** Its IC50 is 41 nM.
